According to PubChem BioAssay (NCI):
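A five-concentration, 48-hour dose response in 96-well plates underlies each endpoint, interpolated linearly between surrounding concentrations. GI50 marks 50% less growth. TGI: total growth inhibition.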

Experiments:
Assay in all cases: DTP human tumour cell line panel, 48 h
[1] = test system: SNB-19 CNS
[2] = test system: UO-31 renal
[3] = test system: UACC-257 melanoma
[4] = test system: OVCAR-5 ovarian
[5] = test system: TK-10 renal
[6] = test system: SR leukemia
[7] = test system: HOP-62 NSCLC
[8] = test system: HCT-15 colon
[9] = test system: SF-295 CNS
[10] = test system: SW-620 colon
[11] = test system: NCI-H522 lung
[12] = test system: SN12C renal
[13] = test system: MDA-MB-435
[14] = test system: RXF 393 renal
[15] = test system: NCI-H23 lung
[16] = test system: HCT-116 colon
[17] = test system: MALME-3M melanoma
[18] = test system: OVCAR-3 ovarian
[19] = test system: HS 578T breast
[20] = test system: KM12 colon
[21] = test system: HL-60(TB) leukemia
[22] = test system: T-47D breast
[23] = test system: SNB-75 CNS
[24] = test system: SK-MEL-5 melanoma
[25] = test system: SF-268 CNS
[26] = test system: PC-3 prostate
[27] = test system: NCI-H226 lung
[28] = test system: BT-549 breast
[29] = test system: MDA-MB-231 breast
[30] = test system: COLO 205 colon

Cc1cccc(/C=C/c2ccc(NC(=S)NCCCCN(C)C)cc2)c1
GI50 [1]: 16.1 µM | TGI [1]: 29.8 µM | GI50 [2]: 14.2 µM | TGI [2]: 27.3 µM | GI50 [3]: 18.1 µM | TGI [3]: 34.8 µM | GI50 [4]: 15.5 µM | TGI [4]: 29.5 µM | GI50 [5]: 20.7 µM | TGI [5]: 38.5 µM | GI50 [6]: 12.2 µM | TGI [6]: 39.2 µM | GI50 [7]: 19 µM | TGI [7]: 37.9 µM | GI50 [8]: 11.9 µM | TGI [8]: 25.1 µM | GI50 [9]: 16.2 µM | TGI [9]: 31.5 µM | GI50 [10]: 14.8 µM | TGI [10]: 29.5 µM | GI50 [11]: 15.9 µM | TGI [11]: 33.5 µM | GI50 [12]: 14.9 µM | TGI [12]: 29 µM | GI50 [13]: 13.9 µM | TGI [13]: 27.7 µM | GI50 [14]: 11.3 µM | TGI [14]: 24.2 µM | GI50 [15]: 16.1 µM | TGI [15]: 31.2 µM | GI50 [16]: 11 µM | TGI [16]: 29.6 µM | GI50 [17]: 15.8 µM | TGI [17]: 29.6 µM | GI50 [18]: 12.7 µM | TGI [18]: 26.1 µM | GI50 [19]: 16.6 µM | TGI [19]: 38.4 µM | GI50 [20]: 16.5 µM | TGI [20]: 31.9 µM | GI50 [21]: 8.41 µM | TGI [21]: 29.7 µM | GI50 [22]: 16.9 µM | TGI [22]: 36.9 µM | GI50 [23]: 9.05 µM | TGI [23]: 21.9 µM | GI50 [24]: 15.9 µM | TGI [24]: 29.4 µM | GI50 [25]: 13.8 µM | TGI [25]: 28.5 µM | GI50 [26]: 14.2 µM | TGI [26]: 32.2 µM | GI50 [27]: 14.9 µM | TGI [27]: 31.2 µM | GI50 [28]: 15.3 µM | TGI [28]: 29.9 µM | GI50 [29]: 12.9 µM | TGI [29]: 26.6 µM | GI50 [30]: 15.6 µM
